According to the supplement of paper PMC10307832:

Experiments:
Assay in all cases: relative viability (nuclei count vs DMSO), 5 days (fraction); higher = more cells survive
[1] = compound: CC1=NC=CC(=C1)C2=CC=C(C=C2)CC(=O)NC3=CC=C(C=C3)C4=CN=CC=C4 [Wnt-C59] + C[C@@H](Oc1cc(-c2cnn(C3CCNCC3)c2)cnc1N)c1c(Cl)ccc(F)c1Cl [Crizotinib] (partner 1 µM)
How it was run: (§1)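 For relative viability, nuclei counts in treated wells were divided by those in vehicle wells. Lung cancer cell lines had been pin-tool dosed in 1536-well plates the day after seeding and cultured for 5 days, then fixed and stained in one step (final 0.05% Triton X-100, 1% formaldehyde, 1 ug/ml Hoechst) and imaged at 4×. Doses were one drug alone or a fixed anchor-drug dose plus five library-drug doses (not always all listed) in √10 steps, and values are duplicate-plate medians.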

[2] = compound: CC1=NC=CC(=C1)C2=CC=C(C=C2)CC(=O)NC3=CC=C(C=C3)C4=CN=CC=C4 [Wnt-C59] + O=C(CCCCCCC(=O)Nc1ccccc1)NO [Vorinostat] (partner 1 µM)
How it was run: as §1

[3] = compound: CS(=O)(=O)CCNCc1ccc(-c2ccc3ncnc(Nc4ccc(OCc5cccc(F)c5)c(Cl)c4)c3c2)o1 [Lapatinib] + CC(=O)c1c(C)c2cnc(Nc3ccc(N4CCNCC4)cn3)nc2n(C2CCCC2)c1=O [Palbociclib] (partner 0.5 µM)
How it was run: as §1

[4] = compound: CS(=O)(=O)CCNCc1ccc(-c2ccc3ncnc(Nc4ccc(OCc5cccc(F)c5)c(Cl)c4)c3c2)o1 [Lapatinib] + Nc1ncn([C@H]2C[C@H](O)[C@@H](CO)O2)c(=O)n1 [Decitabine] (partner 2 µM)
How it was run: as §1

Cell Line: RERF-LC-KJ
- relative viability ([1]; first compound 0.001 µM): 0.868
- relative viability ([1]; first compound 0.01 µM): 0.764
- relative viability ([1]; first compound 0.03162 µM): 0.878
- relative viability ([1]; first compound 0.1 µM): 0.852
- relative viability ([2]; first compound 0.001 µM): 0.746
- relative viability ([2]; first compound 0.01 µM): 0.671
- relative viability ([2]; first compound 0.03162 µM): 0.825
- relative viability ([2]; first compound 0.1 µM): 0.715
- relative viability ([3]; first compound 0.02 µM): 1.11
- relative viability ([3]; first compound 0.06325 µM): 0.885
- relative viability ([3]; first compound 0.2 µM): 0.996
- relative viability ([3]; first compound 0.6325 µM): 0.864
- relative viability ([3]; first compound 2 µM): 0.799
- relative viability ([4]; first compound 0.02 µM): 0.679
- relative viability ([4]; first compound 0.06325 µM): 0.62
- relative viability ([4]; first compound 0.2 µM): 0.749
- relative viability ([4]; first compound 0.6325 µM): 0.645
- relative viability ([4]; first compound 2 µM): 0.499

Cell Line: SK-LU-1
- relative viability ([1]; first compound 0.001 µM): 0.869
- relative viability ([1]; first compound 0.01 µM): 0.935
- relative viability ([1]; first compound 0.03162 µM): 0.91
- relative viability ([1]; first compound 0.1 µM): 1.03
- relative viability ([2]; first compound 0.001 µM): 0.672
- relative viability ([2]; first compound 0.01 µM): 0.768
- relative viability ([2]; first compound 0.03162 µM): 0.81
- relative viability ([2]; first compound 0.1 µM): 0.682
- relative viability ([3]; first compound 0.02 µM): 0.36
- relative viability ([3]; first compound 0.06325 µM): 0.394
- relative viability ([3]; first compound 0.2 µM): 0.455
- relative viability ([3]; first compound 0.6325 µM): 0.44
- relative viability ([3]; first compound 2 µM): 0.392
- relative viability ([4]; first compound 0.02 µM): 0.709
- relative viability ([4]; first compound 0.06325 µM): 0.558
- relative viability ([4]; first compound 0.2 µM): 0.686
- relative viability ([4]; first compound 0.6325 µM): 0.609
- relative viability ([4]; first compound 2 µM): 0.618

Cell Line: SK-MES-1
- relative viability ([1]; first compound 0.001 µM): 1.01
- relative viability ([1]; first compound 0.01 µM): 0.973
- relative viability ([1]; first compound 0.03162 µM): 1.07
- relative viability ([1]; first compound 0.1 µM): 0.959
- relative viability ([2]; first compound 0.001 µM): 1.12
- relative viability ([2]; first compound 0.01 µM): 1.11
- relative viability ([2]; first compound 0.03162 µM): 1.21
- relative viability ([2]; first compound 0.1 µM): 1.03
- relative viability ([3]; first compound 0.02 µM): 0.338
- relative viability ([3]; first compound 0.06325 µM): 0.384
- relative viability ([3]; first compound 0.2 µM): 0.326
- relative viability ([3]; first compound 0.6325 µM): 0.328
- relative viability ([3]; first compound 2 µM): 0.299
- relative viability ([4]; first compound 0.02 µM): 0.429
- relative viability ([4]; first compound 0.06325 µM): 0.364
- relative viability ([4]; first compound 0.2 µM): 0.37
- relative viability ([4]; first compound 0.6325 µM): 0.306
- relative viability ([4]; first compound 2 µM): 0.311

Cell Line: SW 1573
- relative viability ([1]; first compound 0.001 µM): 0.771
- relative viability ([1]; first compound 0.01 µM): 0.764
- relative viability ([1]; first compound 0.03162 µM): 0.746
- relative viability ([1]; first compound 0.1 µM): 0.825
- relative viability ([2]; first compound 0.001 µM): 0.801
- relative viability ([2]; first compound 0.01 µM): 0.673
- relative viability ([2]; first compound 0.03162 µM): 0.778
- relative viability ([2]; first compound 0.1 µM): 0.662
- relative viability ([3]; first compound 0.06325 µM): 0.384
- relative viability ([3]; first compound 0.2 µM): 0.411
- relative viability ([3]; first compound 0.6325 µM): 0.372
- relative viability ([3]; first compound 2 µM): 0.359
- relative viability ([4]; first compound 0.02 µM): 0.492
- relative viability ([4]; first compound 0.06325 µM): 0.437
- relative viability ([4]; first compound 0.2 µM): 0.565
- relative viability ([4]; first compound 0.6325 µM): 0.633
- relative viability ([4]; first compound 2 µM): 0.489
